Experimental findings from patent US6858638B2, “Substituted indazoles, compositions containing them, method of production and use” (Aventis Pharma S.A., priority 2002, dated 2005) are described below.

Holding throughout (type): biochemical
One test has as its target T1, human FAK (Homo sapiens, UniProt Q05397).
T1 construct: The complete cDNA of human FAK; made in house; host or cells: baculovirus expression system (vector pFastBac HTc)
Description: FAK autophosphorylation inhibition, time resolved fluorescence (HTRF) assay. Particulars: 10 μM (values without asterisk); read-out: FAK % inhib at 10 μM. As for the experimental part:
The inhibitory activity of the compounds on FAK is determined by measuring the inhibition of the autophosphorylation of the enzyme using a time resolved fluorescence (HTRF) assay.
The complete cDNA of human FAK, the N-terminal end of which was labeled with histidine, was cloned into a baculovirus expression vector pFastBac HTc. The protein was expressed and purified to approximately 70% homogeneity.
The kinase activity is determined by incubating the enzyme (6.6 μg/ml) with various concentrations of test compound in a 50 mM Hepes buffer, pH=7.2, containing 10 mM MgCl2, 100 μM Na3VO4 and 15 μM d'ATP for 1 hour at 37° C. The enzyme reaction is stopped by adding Hepes buffer, pH=7.0, containing […], 133 mM EDTA and 0.1% BSA, and the labeling is carried out, over 1 to 2 hours at ambient temperature, by adding to this buffer an anti-Histidine antibody labeled with XL665 and a monoclonal antibody phosphospecific for tyrosine, conjugated to europium cryptate (Eu-K). The characteristics of the two fluorophores are available in G. Mathis et al., Anticancer Research, 1997, 17, pages 3011-3014. The transfer of energy from the excited europium cryptate to the XL665 acceptor is proportional to the degree of autophosphorylation of FAK. The long-lived signal specific for XL-665 is measured in a Packard Discovery plate counter. All the assays are carried out in duplicate and the mean of the two assays is calculated. The inhibition of the FAK autophosphorylation activity with compounds of the invention is expressed as percentage inhibition compared to a control whose activity is measured in the absence of test compound. The [signal at 665 nm/signal at 620 nm] ratio is used for the calculation of the % inhibition.
Background: TR-FRET usually uses a lanthanide donor and a delayed reading to cut background.

In the next test the target is T2, human KDR enzyme (Homo sapiens, UniProt P35968).
T2 construct: The cytoplasmic domain of the human KDR enzyme; GST; made in house; host or cells: SF21 insect cells (baculovirus)
T2 sequence (P35968 786-1356 limits assumed): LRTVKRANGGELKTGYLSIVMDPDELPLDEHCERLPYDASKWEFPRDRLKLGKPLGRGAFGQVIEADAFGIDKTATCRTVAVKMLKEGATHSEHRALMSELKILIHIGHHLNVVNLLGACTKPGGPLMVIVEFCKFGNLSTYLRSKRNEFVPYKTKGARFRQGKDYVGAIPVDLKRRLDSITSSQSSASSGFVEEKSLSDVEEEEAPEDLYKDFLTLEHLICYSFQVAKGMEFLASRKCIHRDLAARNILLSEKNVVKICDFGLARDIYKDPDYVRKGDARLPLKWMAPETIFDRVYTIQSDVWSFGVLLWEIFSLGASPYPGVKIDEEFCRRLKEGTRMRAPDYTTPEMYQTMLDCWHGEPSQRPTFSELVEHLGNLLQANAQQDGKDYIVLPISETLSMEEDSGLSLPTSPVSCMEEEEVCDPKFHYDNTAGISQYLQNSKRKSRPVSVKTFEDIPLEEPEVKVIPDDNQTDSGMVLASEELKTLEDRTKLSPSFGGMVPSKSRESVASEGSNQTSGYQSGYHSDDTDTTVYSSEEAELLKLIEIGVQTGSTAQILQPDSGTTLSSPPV
Kind of test: KDR substrate (PLCγ) phosphorylation, scintillation assay. Particulars: 10 μM; read-out: KDR % inhib at 10 μM. As for the experimental part: The inhibitory effect of the compounds is determined in an assay of substrate phosphorylation by the KDR enzyme in vitro using a scintillation technique (96-well plate, NEN).
The cytoplasmic domain of the human KDR enzyme was cloned in the form of a GST fusion into the baculovirus expression vector pFastBac. The protein was expressed in SF21 cells and purified to approximately 60% homogeneity.
The KDR kinase activity is measured in 20 mM MOPS, 10 mM MgCl2, 10 mM MnCl2, 1 mM DTT, 2.5 mM EGTA, 10 mM β-glycerophosphate, pH=7.2, in the presence of 10 mM MgCl2, 100 μM Na3VO4, 1 mM NaF. 10 μl of the compound are added to 70 μl of kinase buffer containing 100 ng of KDR enzyme at 4° C. The reaction is triggered by adding 20 μl of solution containing 2 μg of substrate (SH2-SH3 fragment of PLCγ expressed in the form of a GST fusion protein), 2 μCi γ^33P[ATP] and 2 μM cold ATP. After incubation for 1 hour at 37° C., the reaction is stopped by adding 1 volume (100 μl) of 200 mM EDTA. The incubation buffer is removed and the wells are washed three times with 300 μl of PBS. The radioactivity is measured in each well using Top Count NXT radioactivity counter (Packard).
The background noise is determined by measuring the radioactivity in four different wells containing the radioactive ATP and the substrate alone.
A control for total activity is measured in four different wells containing all the reagents (γ^33P-[ATP], KDR and PLCγ substrate) but in the absence of compound.
The inhibition of the KDR activity with the compound of the invention is expressed as percentage inhibition of the control activity determined in the absence of compound.
The compound SU5614 (Calbiochem) (1 μM) is included in each plate as an inhibition control.

A further test deals with T3, Aurora2 kinase (Homo sapiens, UniProt O14965).
T3 construct: A complete recombinant Aurora2 enzyme; His tag (N); made in house; host or cells: E. coli
T3 sequence (O14965 1-403): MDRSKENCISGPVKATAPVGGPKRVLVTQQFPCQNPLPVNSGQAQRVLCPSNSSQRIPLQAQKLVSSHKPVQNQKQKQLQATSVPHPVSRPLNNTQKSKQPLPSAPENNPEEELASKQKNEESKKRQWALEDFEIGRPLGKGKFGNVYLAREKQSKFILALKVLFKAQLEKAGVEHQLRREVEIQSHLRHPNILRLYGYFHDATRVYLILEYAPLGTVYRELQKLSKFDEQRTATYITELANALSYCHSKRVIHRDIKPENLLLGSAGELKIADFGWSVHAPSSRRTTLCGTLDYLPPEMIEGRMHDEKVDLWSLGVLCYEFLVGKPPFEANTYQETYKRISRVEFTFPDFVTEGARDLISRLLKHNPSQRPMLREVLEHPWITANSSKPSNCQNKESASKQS
Kind of test: Aurora2 kinase radioactivity scintillation assay using nickel chelate (NuMA substrate). Particulars: 10 μM; read-out: Aurora2 % inhib at 10 μM. As for the experimental part:
The inhibitory effect of compounds with respect to the Aurora2 kinase is determined with a radioactivity scintillation assay using nickel chelate.
A complete recombinant Aurora2 enzyme, the N-terminal end of which was labeled with histidine, was expressed in E. coli and purified to a quality close to homogeneity.
The C-terminal fragment (Q1687-H2101) of a NuMA (Nuclear protein that associates with the Mitotic Apparatus) expressed in E. coli, and the N-terminal end of which was labeled with histidine, was purified by nickel chelate chromatography and used as substrate in the Aurora2 kinase assay. In order to determine the kinase activity, the NuMA substrate is equilibrated by chromatography on a Pharmacia PD10 column, in a buffer (50 mM Tris HCl, pH7.5, 50 mM NaCl, 10 mM MgCl2) to which 10% (v/v) of glycerol and 0.05% (w/v) of NP40 have been added.
The kinase acivitity of Aurora2 is measured by scintillation with nickel chelate (New England Nuclear, model SMP107). Each well contains 100 μl of the following solution: 0.02 μM of Aurora2; 0.5 μM of NuMA substrate; 1 μM of ATP to which 0.5 μCi of ATP-[^33P] has been added. The solutions are incubated for 30 minutes at 37° C. The assay buffer is then removed and the wells are rinsed twice with 300 μl of kinase buffer. The radioactivity is measured in each well using a Packard Model Top Count NXT device.
The background noise is deduced from the measurement of radioactivity by measuring, in duplicate, in wells containing the radioactive ATP alone containing buffered kinase treated in the same way as the other samples.
The activity of the control is determined by measuring, in duplicate, the radioactivity in the complete assay mixture (ATP, Aurora2 and the NuMA substrate) in the absence of test compound.
The inhibition of the Aurora2 with a compound of the invention is expressed as percentage inhibition of the control activity in the absence of test compound. Staurosporine is added to each plate as an inhibition control.

Test [1] addresses T4, human IGF1R cytoplasmic domain (Homo sapiens, UniProt P08069).
T4 construct: The human IGF1R cytoplasmic domain was cloned; made in house; host or cells: SF21 insect cells (baculovirus)
Kind of test: IGF1R autophosphorylation inhibition, time resolved fluorescence (HTRF) assay. Particulars: 10 μM; read-out: IGF1R % inhib at 10 μM. The procedure:
The inhibitory activity of the compounds on IGF1R is determined by measuring the inhibition of the autophosphorylation of the enzyme using a time resolved fluorescence (HTRF) assay.
The human IGF1R cytoplasmic domain was cloned, as a fusion with glutathione S-transferase (GST), into the baculovirus expression vector pFastBac-GST. The protein was expressed in SF21 cells and purified to approximately 80% homogeneity.
The kinase activity was determined by incubating the enzyme with various concentrations of test compound in a 50 mM Hepes buffer, pH 7.5, containing 5 mM MnCl2, 50 mM NaCl, 3% glycerol, 0.025% Tween […] of ATP. The enzyme reaction is stopped by adding 100 mM Hepes buffer, pH 7.0, containing 0.4 M KF, 133 mM EDTA and 0.1% BSA containing an anti-GST antibody labeled with XL665 and an antiphosphotyrosine antibody conjugated to europium cryptate (Eu-K). The characteristics of the two fluorophores, XL-665 and Eu-K, are available in G. Mathis et al., Anticancer Research, 1997, 17, pages 3011-3014. The transfer of energy from the excited europium cryptate to the acceptor XL665 is proportional to the degree of autophosphorylation of IGF1R. The long-lived signal specific for XL-665 is measured in a Victor analyzer plate counter (Perkin-elmer). The inhibition of the IGF1R autophosphorylation activity with compounds of the invention is expressed as percentage inhibition compared to a control whose activity is measured in the absence of test compound.

T1 sequence (Q05397 whole entry): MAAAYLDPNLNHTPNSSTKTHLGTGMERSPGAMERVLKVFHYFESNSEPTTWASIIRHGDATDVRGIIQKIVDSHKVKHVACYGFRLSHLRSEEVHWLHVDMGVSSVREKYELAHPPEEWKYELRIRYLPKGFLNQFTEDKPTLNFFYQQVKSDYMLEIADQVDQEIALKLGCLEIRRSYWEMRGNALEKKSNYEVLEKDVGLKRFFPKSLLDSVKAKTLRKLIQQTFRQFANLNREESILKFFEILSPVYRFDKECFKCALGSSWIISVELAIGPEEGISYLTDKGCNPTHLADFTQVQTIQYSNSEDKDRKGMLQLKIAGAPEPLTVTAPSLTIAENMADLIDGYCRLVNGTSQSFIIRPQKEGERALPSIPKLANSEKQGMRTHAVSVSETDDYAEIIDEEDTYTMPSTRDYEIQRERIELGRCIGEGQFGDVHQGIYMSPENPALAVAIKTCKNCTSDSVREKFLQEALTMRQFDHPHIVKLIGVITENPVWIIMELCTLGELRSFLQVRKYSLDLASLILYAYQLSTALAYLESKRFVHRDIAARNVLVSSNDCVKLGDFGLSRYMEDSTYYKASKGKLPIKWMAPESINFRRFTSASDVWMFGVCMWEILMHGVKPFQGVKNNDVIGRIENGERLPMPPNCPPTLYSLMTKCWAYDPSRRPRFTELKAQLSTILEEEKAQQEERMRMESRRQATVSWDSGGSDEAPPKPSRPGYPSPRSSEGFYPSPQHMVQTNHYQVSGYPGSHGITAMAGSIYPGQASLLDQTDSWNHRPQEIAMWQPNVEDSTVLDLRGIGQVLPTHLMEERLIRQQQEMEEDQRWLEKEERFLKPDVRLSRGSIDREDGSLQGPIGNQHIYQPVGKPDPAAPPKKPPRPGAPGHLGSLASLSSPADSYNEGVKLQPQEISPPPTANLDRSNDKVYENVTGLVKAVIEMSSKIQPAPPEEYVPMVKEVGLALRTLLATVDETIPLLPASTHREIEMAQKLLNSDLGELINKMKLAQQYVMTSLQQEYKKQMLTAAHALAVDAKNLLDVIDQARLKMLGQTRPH
T4 sequence (P08069 960-1367 limits assumed): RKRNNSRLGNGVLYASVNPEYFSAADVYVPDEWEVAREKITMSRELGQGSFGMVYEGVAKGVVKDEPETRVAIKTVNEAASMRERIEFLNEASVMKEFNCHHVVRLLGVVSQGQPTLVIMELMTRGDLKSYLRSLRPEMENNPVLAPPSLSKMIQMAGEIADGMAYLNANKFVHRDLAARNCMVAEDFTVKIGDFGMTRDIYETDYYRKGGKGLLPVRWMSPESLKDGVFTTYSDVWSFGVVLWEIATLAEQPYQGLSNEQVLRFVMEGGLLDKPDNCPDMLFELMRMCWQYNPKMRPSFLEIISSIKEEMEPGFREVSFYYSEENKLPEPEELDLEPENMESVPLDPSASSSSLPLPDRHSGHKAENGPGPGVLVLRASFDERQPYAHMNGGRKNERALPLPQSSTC

For `CCOc1ccc(-c2n[nH]c3ccc(NS(=O)(=O)c4ccccc4S(C)(=O)=O)cc23)cc1` [Example 190, N-[3-(4-Ethoxyphenyl)-1H-indazol-5-yl]-2-methanesulfonyl-benzenesulfonamide], the inhibition at 10 µM on human FAK worked out at 96%; at human KDR enzyme, 50%; at Aurora2 kinase, 95%; in test [1], 74%.

With `Cc1ccc(-c2n[nH]c3ccc(NS(=O)(=O)c4ccccc4S(C)(=O)=O)cc23)cc1F` [Example 224, N-[3-(3-Fluoro-4-methyl-phenyl)-1H-indazol-5-yl]-2-methanesulfonyl-benzenesulfonamide], the inhibition at 10 µM at human FAK amounted to 91%; at human KDR enzyme, 71%; on Aurora2 kinase, 92%; in test [1] it was 70%.

In the case of `CCc1ccc(-c2n[nH]c3ccc(NS(=O)(=O)c4ccccc4S(C)(=O)=O)cc23)cc1` [Example 193, N-[3-(4-Ethylphenyl)-1H-indazol-5-yl]-2-methanesulfonyl-benzenesulfonamide], the inhibition at 10 µM on human FAK is 76%; on human KDR enzyme, 56%; on Aurora2 kinase, 88%; in test [1], 65%.

On to `COc1ccc(-c2n[nH]c3ccc(NS(=O)(=O)c4ccccc4S(C)(=O)=O)cc23)cc1OC` [Example 198, 2-Methanesulfonyl-N-[3-(3,4-dimethoxyphenyl)-1H-indazol-5-yl]benzenesulfonamide], for which the inhibition at 10 µM at human FAK worked out at 98%; at human KDR enzyme, 66%; at Aurora2 kinase it was 98%; in test [1] it was 76%.

As to `O=S(=O)(Nc1ccc2[nH]nc(-c3ccccc3)c2c1)c1cccc2cccnc12` [Example 111, N-(3-Phenyl-1H-indazol-5-yl)quinoline-8-sulfonamide], the inhibition at 10 µM at human FAK amounted to 66%; at human KDR enzyme, 83%; on Aurora2 kinase, 100%; in test [1] it was 99%.

In the case of `CS(=O)(=O)c1ccccc1S(=O)(=O)Nc1ccc2[nH]nc(-c3ccc4[nH]ccc4c3)c2c1` [Example 104, N-[3-(1H-indol-5-yl)-1H-indazol-5-yl]-2-methylsulfonylbenzenesulfonamide], the inhibition at 10 µM at human FAK is 85%; on human KDR enzyme, 75%; at Aurora2 kinase it was 97%; in test [1], 73%.

Turning to `O=[N+]([O-])c1ccccc1CS(=O)(=O)Nc1ccc2[nH]nc(-c3ccccc3)c2c1` [Example 151, C-(2-Nitrophenyl)-N-(3-phenyl-1H-indazol-5-yl)-methanesulfonamide], the inhibition at 10 µM on human FAK worked out at 33%; at human KDR enzyme it was 63%; on Aurora2 kinase, 84%.

As for `CC(=O)Nc1n[nH]c2ccc(NS(=O)(=O)c3cc(F)cc(F)c3)cc12` [Example 44, N-[5-(3,5-Difluorobenzenesulfonylamino)-1H-indazol-3-yl]acetamide], the inhibition at 10 µM on human FAK was 95%; on human KDR enzyme, 37%; in test [1] it was 82%.

Consider `O=S(=O)(Cc1ccccc1)Nc1ccc2[nH]nc(-c3ccccc3)c2c1` [Example 125, 1-Phenyl-N-(3-phenyl-1H-indazol-5-yl)-methanesulfonamide], for which the inhibition at 10 µM on human FAK turned out to be 17%; at human KDR enzyme, 56%; on Aurora2 kinase, 65%.

`O=S(=O)(Nc1ccc2[nH]nc(-c3ccccc3)c2c1)c1ccc(-c2ccon2)s1` [Example 150, N-(3-Phenyl-1H-indazol-5-yl)-(5-isoxazol-3-ylthiophene)-2-sulfonamide]: the inhibition at 10 µM at human FAK was determined as 3%; at human KDR enzyme, 75%; on Aurora2 kinase, 82%.

As for `CC(C)S(=O)(=O)Nc1ccc2[nH]nc(-c3ccccc3)c2c1` [Example 123, 1-Methyl-N-(3-phenyl-1H-indazol-5-yl)ethanesulfonamide], the values for the inhibition at 10 µM on human FAK, at human KDR enzyme and at Aurora2 kinase were 30%, 62% and 82%, respectively.
